Reference: PMC8273887 (Journal of Medicinal Chemistry, 2021)
“Also recorded” adds a separate entry of the source. Each block holds one substance with its values, some of them ahead of it. Bridge positions count the residues as written; N and C are the ends. Ends that are not written are not given here.

Key:
CXCR4 = target: T1, CXCR4 (Homo sapiens, UniProt P61073); test: Inositol 1 phosphate (IP1) accumulation assay (HTRF) in COS-7 cells transfected with CXCR4; type: cell-based; conditions: 5 min preincubation with peptide (1 or 10 μM final), then CXCL12 10^-12 to 10^-5 M; COS-7/CXCR4; IP1 HTRF
T1 construct: expressed in transfected cells; host or cells: COS-7 (African green monkey), transient co-transfection with GαΔ6qi4myr
T1 sequence (P61073 whole entry): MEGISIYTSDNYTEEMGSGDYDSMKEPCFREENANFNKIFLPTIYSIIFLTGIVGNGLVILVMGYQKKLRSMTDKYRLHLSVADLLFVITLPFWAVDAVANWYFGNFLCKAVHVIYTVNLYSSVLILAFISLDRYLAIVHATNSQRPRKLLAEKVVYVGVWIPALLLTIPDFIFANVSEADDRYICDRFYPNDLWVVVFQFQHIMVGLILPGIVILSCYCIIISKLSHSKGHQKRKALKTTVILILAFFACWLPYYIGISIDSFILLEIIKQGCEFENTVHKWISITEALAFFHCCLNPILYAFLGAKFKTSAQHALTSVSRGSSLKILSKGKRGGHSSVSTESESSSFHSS
Source text: CXCR4 is a member of the G protein-coupled receptor (GPCR) family[58] and proposed as a target receptor for TFF3 to mediate wound healing.[30],[39] We therefore pharmacologically characterized TFF3(C^57Acm) and TFF3 homodimer at CXCR4. We used a chimeric Gαiq protein to switch the pathway to the Gαq signaling, which leads to the activation of the phospholipase and allows measurement of CXCR4 activation through the production of inositol 1 phosphate (IP1).[61]−[63] We measured IP1 accumulation upon stimulation with TFF3(C^57Acm) and TFF3 homodimer in fibroblast-like COS-7 cells transiently transfected with CXCR4.[58] This is a competitive immunoassay, based on the HTRF technology, where native IP1 produced by cells compete with labeled IP1 (acceptor) for binding to anti-IP1-cryptate (donor). The specific signal (i.e., Förster resonance energy transfer, FRET) is inversely proportional to the concentration of IP1 in the sample. The calculation of the fluorescence ratio eliminates possible medium interferences.[64]
COS-7 cells (fibroblast-like cells from African green monkey) were transiently co-transfected with the CXCR4 C-terminally fused to eYFP in pVitro2 vector and the untagged chimeric G protein GαΔ6qi4myr in pcDNA3.1 plasmid using Metafectene Pro according to manufacturer’s protocol. The cells were cultured in DMEM with higher glucose and supplemented with 10% FCS without any antibiotics at 37 °C and 5% CO2 in 95% humidity. Cisbio IP-One Gq assay kit was used according to previous description with minor modifications to measure activity.[80] Briefly, a standard curve was prepared in HBSS (Hanks’ balanced salt solution) with 20 mM LiCl to determine the linear range of the assay and 10 000 cells/well were cultured overnight in a 384-well flat white plate (Greiner Bio-one GmbH, Frickenhausen, Germany). TFF3 and its homodimer as well as CXCL12 were diluted in HBSS containing 20 mM LiCl. Stimulation was carried out for 1 h in triplicate at 37 °C. Subsequently, 3 μL of IP1-d2 and 3 μL of Ab-cryptate in lysis buffer were added to the wells and incubated on a tumbler for 60 min at 25 °C. Fluorescence was then measured at 620 and 665 nm and the HTRF (homogeneous time-resolved fluorescence) ratio (665/620 nm) was calculated. Data analysis was performed with Prism (version 7, GraphPad, La Jolla). Tested compounds were normalized to CXCL12 wild type, with the highest HTRF ratio set to 0% and the lowest HTRF ratio set to 100% response. […] The final concentration range of 10^–12 to 10^–5 M to CXCL12 and 1 or 10 μM to TFF3(C^57Acm) and TFF3 homodimer was achieved by adding the compounds from a threefold concentrated stock solution.

[1] = Stability of disulfide bonds with reduced glutathione (GSH); type: physicochemical; conditions: peptide 10 μM, 10 equiv reduced glutathione (100 μM), 50 mM sodium phosphate buffer pH 7.2; timepoints 0, 4, 8, 24 h; analytical C3 RP-HPLC
Source text: In certain physiological environments, disulfide bonds are prone to scrambling or reductive cleavage, thereby affecting peptide integrity.[67] Thus, we also evaluated the stability of the disulfide bonds of TFF3 in the presence of 10 equivalents of reduced glutathione (GSH) at pH 7 by time-course analytical RP-HPLC. […] While this was expected for the relatively buried disulfide bonds within the trefoil domain (TFF3_10-50), it highlights that also the disulfide bond outside of the trefoil domain is well protected.
Simulated gastric fluid (SGF) was prepared by dissolving 20 mg of NaCl and 8 mg of pepsin in 70 μL of concentrated HCl (32%), and the volume was diluted to 10 mL with Milli-Q water (pH 1.3).[76],[77] […] The samples were analyzed by analytical RP-HPLC (30 μL) and/or LC-MS (20 μL). The amount of peptide remaining was determined by measuring the peak area and expressing it as a % of the peak area at time 0. Peptide half-life (t1/2) was determined from the peptide degradation profiles using an exponential one-phase decay fit in Prism (version 7, GraphPad, La Jolla). […] The stability of the disulfide bonds was assessed through incubation of the peptides (10 μM) with 10 equiv of reduced glutathione (GSH; 100 μM) in sodium phosphate (50 mM) buffer at pH 7.2. […]

trypsin = conditions: incubated with trypsin; fragments identified
Source text: We then synthesized the trefoil domain (TFF3_10-50, single-chain assembly via Fmoc-SPPS) to investigate its gut stability. We acetylated the N-terminus (Gln^10) of the trefoil domain to prevent the formation of pyroglutamic acid.

[2] = Stability in simulated gastric fluid (SGF); type: in vitro ADME, porcine; conditions: SGF with pepsin, pH 1.3, 37 °C, 24 h; RP-HPLC and MS
Description: (§1) We exposed TFF3(C^57Acm) and TFF3 homodimer to simulated gastric fluid (SGF, containing pepsin, pH 1.3) and simulated intestinal fluid (SIF, containing pancreatic enzymes, pH 6.8), and monitored the mixture over 24 h by analytical RP-HPLC and MS. The N- and C-termini of TFF3 and its homodimer were readily truncated in both SGF and SIF (Figure 4A,B). In SGF, TFF3 was cleaved at Leu^6/Ser^7 followed by cleavage at Glu^54/Ala^55 (t1/2 < 5 min). In SIF, TFF3 was cleaved first at Thr^58/Phe^59 followed by cleavage at Leu^6/Ser^7, Glu^56/Cys^57, and Ala^55/Glu^56 (t1/2 < 5 min). TFF3 homodimer, in both SGF (t1/2 ∼ 40 min) and SIF (t1/2 < 5 min), was first broken down to monomeric TFF3 through simultaneous cleavage at Leu^6 and Glu^54 or Ala^55, eventually leading to the same metabolites as TFF3 (Figure 4B).
(§2) Simulated gastric fluid (SGF) was prepared by dissolving 20 mg of NaCl and 8 mg of pepsin in 70 μL of concentrated HCl (32%), and the volume was diluted to 10 mL with Milli-Q water (pH 1.3).[76],[77] Simulated intestinal fluid (SIF) was prepared by dissolving 68 mg of KH2PO4 in 500 μL of Milli-Q water followed by the addition of 800 μL of 0.2 M NaOH and 100 mg of porcine pancreatin, and the volume was adjusted to 10 mL with Milli-Q water (pH 6.8).[76],[77] Peptide stock solution (1 mM; 15 μL) was added to SGF (285 μL) or SIF (285 μL) and incubated at 37 °C. Samples (30 μL) from SGF and SIF were taken at 0, 5, 15, and 30 min and 1, 2, 4, 8, and 24 h timepoints and subsequently quenched with 30 μL of 0.2 M Na2CO3 (SGF) or 30 μL of 5% aqueous TFA (SIF). The samples were analyzed by analytical RP-HPLC (30 μL) and/or LC-MS (20 μL). The amount of peptide remaining was determined by measuring the peak area and expressing it as a % of the peak area at time 0. Peptide half-life (t1/2) was determined from the peptide degradation profiles using an exponential one-phase decay fit in Prism (version 7, GraphPad, La Jolla). LC-MS analysis was performed in a Q-Star Pulsar mass spectrometer (SCIEX, Ontario, Canada), and the raw data spectra were processed using the peptide reconstruction tool in the BioAnalyst software to identify the mass of the metabolites. The stability of the disulfide bonds was assessed through incubation of the peptides (10 μM) with 10 equiv of reduced glutathione (GSH; 100 μM) in sodium phosphate (50 mM) buffer at pH 7.2. Samples were taken at timepoints 0, 4, 8, and 24 h, quenched by adding 10% TFA, and analyzed by analytical RP-HPLC using an analytical C3 column (Agilent Zorbax SB-C3, 5 μm, 2.1 mm × 250 mm, 300 Å).

[3] = Stability in simulated intestinal fluid (SIF); type: in vitro ADME; conditions: pig, simulated intestinal fluid (SIF) with porcine pancreatin, pH 6.8, 15 μL of 1 mM peptide stock in 285 μL SIF, 37 °C, samples 0 min-24 h quenched with 5% aqueous TFA, RP-HPLC/LC-MS peak area as % of time 0, exponential one-phase decay fit, read-out: t1/2 in SIF
Description: as §1, §2

pepsin = test: simulated gastric fluid (SGF, containing pepsin, pH 1.3); conditions: porcine, 37 °C, up to 24 h
human saliva = conditions: cited from earlier work
porcine pancreatin = test: simulated intestinal fluid (SIF, containing pancreatic enzymes, pH 6.8); conditions: 37 °C, up to 24 h

effect on the EC50 of CXCL12 at CXCR4 (antagonism) (CXCR4): not affected
Substance: TFF3: 59-residue trefoil factor 3 peptide, three intrachain disulfide bonds, free Cys^57; chemically synthesized by native chemical ligation (EEYVGLSANQCAVPAKDRVDCGYPHVTPKECNNRGCCFDSRIPGVPWCFKPLQEAECTF; disulfide 11-37, 21-36, 31-48)
disulfide bond reduction or scrambling in presence of GSH [1]: No disulfide bond reduction or scrambling was observed

Substance: Ac-QCAVPAKDRVDCGYPHVTPKECNNRGCCFDSRIPGVPWCFK-NH2 (disulfide 2-28, 12-27, 22-39) [TFF3_10-50]
cleavage sites on incubation with trypsin (trypsin): cleavages at Lys^16, Arg^18, and Arg^41
stability in SGF over 24 h (in words) [2]: stable
half-life at 50 μM [3]: < 30 min

cleaved bond (porcine pancreatin): Leu6-Ser7, first_seen
Substance: EEYVGLSANQCAVPAKDRVDCGYPHVTPKECNNRGCCFDSRIPGVPWCFKPLQEAECTF
cleaved bond (pepsin): Leu6-Ser7, first_seen; also recorded: Glu54-Ala55, first_seen; also recorded: Ala55-Glu56, first_seen
cleaved bond (human saliva): Thr58-Phe59
fragment found (porcine pancreatin): S^7ANQCAVPAKDRVDCGYPHVTPKECNNRGCCFDSRIPGVPWCFKPLQEAE^56
